Data taken from patent US8586550B2, “Thiazole derivatives as SGLT2 inhibitors and pharmaceutical composition comprising same” (Green Cross Corporation, priority 2010, dated 2013).

Molecular target: T1, Human SGLT2 (hSGLT2) (Homo sapiens, UniProt P31639)
T1 construct: expressed in transfected cells
T1 sequence (P31639 1-672): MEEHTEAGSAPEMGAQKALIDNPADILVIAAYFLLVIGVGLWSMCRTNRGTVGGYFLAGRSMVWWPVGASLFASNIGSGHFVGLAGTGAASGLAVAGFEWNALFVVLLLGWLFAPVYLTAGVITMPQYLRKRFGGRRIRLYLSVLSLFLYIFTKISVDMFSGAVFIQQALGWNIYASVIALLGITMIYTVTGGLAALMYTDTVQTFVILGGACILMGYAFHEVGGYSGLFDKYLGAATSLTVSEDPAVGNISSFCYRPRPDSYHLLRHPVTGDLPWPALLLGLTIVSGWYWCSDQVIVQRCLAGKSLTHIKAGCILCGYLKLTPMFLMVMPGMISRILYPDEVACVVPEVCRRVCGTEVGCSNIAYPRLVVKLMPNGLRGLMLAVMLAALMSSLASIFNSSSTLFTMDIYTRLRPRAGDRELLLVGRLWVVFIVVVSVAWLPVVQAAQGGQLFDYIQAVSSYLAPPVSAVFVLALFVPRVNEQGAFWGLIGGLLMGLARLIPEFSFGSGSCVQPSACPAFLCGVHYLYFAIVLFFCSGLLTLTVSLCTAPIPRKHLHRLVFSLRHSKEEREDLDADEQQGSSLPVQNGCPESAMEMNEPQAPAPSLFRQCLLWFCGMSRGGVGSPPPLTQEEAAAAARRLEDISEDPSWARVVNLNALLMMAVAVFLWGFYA
Assay: Sodium-dependent glucose transport (14C-AMG uptake) assay in CHO cells stably expressing hSGLT2
Format: cell-based
Conditions: CHO cells expressing hSGLT2, 14C-AMG uptake, 37° C. for 2 h; single determinations; read-out: hSGLT2 Inhibitory Activity IC50
Summary of the method: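 CHO cells stably expressing human SGLT2, preincubated 10 min at 37 °C in sodium-free choline buffer, then 2 h at 37 °C in Na+ buffer with 1 mM AMG plus 8 μM 14C-AMG and inhibitor. Washed cells counted by scintillation; IC50 by nonlinear regression.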

| Compound | IC50 |
| --- | --- |
| OC[C@H]1O[C@@H](c2ccc(Cl)c(Cc3ncc(-c4ccoc4)s3)c2)[C@H](O)[C@@H](O)[C@@H]1O [Example 6, (2S,3R,4R,5S,6R)-2-(4-Chloro-3-((5-(furan-3-yl)thiazol-2-yl)methyl)phenyl)-6-(hydroxymethyl)-tetrahydro-2H-pyran-3,4,5-triol] | 6.25 nM |
| CCOc1cc(Cl)c(Cc2ncc(-c3ccco3)s2)cc1[C@@H]1O[C@H](CO)[C@@H](O)[C@H](O)[C@H]1O [Example 77, (2S,3R,4R,5S,6R)-2-(4-Chloro-2-ethoxy-5-((5-(furan-2-yl)thiazol-2-yl)methyl)phenyl)-6-(hydroxymethyl)tetrahydro-2H-pyran-3,4,5-triol] | 3.98 nM |
| COc1cc(Cl)c(Cc2ncc(-c3ccsc3)s2)cc1[C@@H]1O[C@H](CO)[C@@H](O)[C@H](O)[C@H]1O [Example 72, (2S,3R,4R,5S,6R)-2-(4-Chloro-2-methoxy-5-((5-(thiophen-3-yl)thiazol-2-yl)methyl)phenyl)-6-(hydroxymethyl)tetrahydro-2,1-pyran-3,4,5-triol] | 1.29 nM |
| (2S,3R,4R,5S,6R)-2-(4-Fluoro-3-((5-(thiazol-3-yl)thiazol-2-yl)methyl)phenyl)-6-(hydroxymethyl)tetrahydro-2H-pyran-3,4,5-triol [Example 43] | 7.36 nM |
| CCCCCc1cnc(Cc2cc([C@@H]3O[C@H](CO)[C@@H](O)[C@H](O)[C@H]3O)ccc2Cl)s1 [Example 14, (2S,3R,4R,5S,6R)-2-(4-Chloro-3-((5-pentylthiazol-2-yl)methyl)phenyl)-6-(hydroxymethyl)-tetrahydro-2H-pyran-3,4,5-triol] | 13.3 nM |
| CCCCc1cnc(Cc2cc([C@@H]3O[C@H](CO)[C@@H](O)[C@H](O)[C@H]3O)ccc2Cl)s1 [Example 13, (2S,3R,4R,5S,6R)-2-(3-((5-Butylthiazol-2-yl)methyl)-4-chlorophenyl)-6-(hydroxymethyl)-tetrahydro-2H-pyran-3,4,5-triol] | 119 nM |
| OC[C@H]1O[C@@H](c2cc(Cc3ncc(-c4ccoc4)s3)c(Cl)cc2F)[C@H](O)[C@@H](O)[C@@H]1O [Example 54, (2S,3R,4R,5S,6R)-2-(4-Chloro-2-fluoro-5-((5-(furan-3-yl)thiazol-2-yl)methyl)phenyl)-6-(hydroxymethyl)tetrahydro-2H-pyran-3,4,5-triol] | 5.35 nM |
| COc1cc(Cl)c(Cc2ncc(-c3ccccc3)s2)cc1[C@@H]1O[C@H](CO)[C@@H](O)[C@H](O)[C@H]1O [Example 73, (2S,3R,4R,5S,6R)-2-(4-Chloro-2-methoxy-5-((5-phenylthiazol-2-yl)methyl)phenyl)-6-(hydroxymethyl)tetrahydro-2H-pyran-3,4,5-triol] | 2.01 nM |
| OC[C@H]1O[C@@H](c2cc(Cc3ncc(-c4ccoc4)s3)c(Cl)cc2Cl)[C@H](O)[C@@H](O)[C@@H]1O [Example 60, (2S,3R,4R,5S,6R)-2-(2,4-Dichloro-5-((5-(furan-3-yl)thiazol-2-yl)methyl)phenyl)-6-(hydroxymethyl)tetrahydro-2H-pyran-3,4,5-triol] | 13.3 nM |
| CCCCCCc1cnc(Cc2cc([C@@H]3O[C@H](CO)[C@@H](O)[C@H](O)[C@H]3O)ccc2Cl)s1 [Example 15, (2S,3R,4R,5S,6R)-2-(4-Chloro-3-((5-hexylthiazol-2-yl)methyl)phenyl)-6-(hydroxymethyl)-tetrahydro-2H-pyran-3,4,5-triol] | 5 nM |
| CCCOc1cnc(Cc2cc([C@@H]3O[C@H](CO)[C@@H](O)[C@H](O)[C@H]3O)ccc2Cl)s1 [Example 22, (2S,3R,4R,5S,6R)-2-(4-Chloro-3-((5-propoxythiazol-2-yl)methyl)phenyl)-6-(hydroxymethyl)-tetrahydro-2H-pyran-3,4,5-triol] | 12.4 nM |
| C=CCOc1cc(Cl)c(Cc2ncc(-c3ccoc3)s2)cc1[C@@H]1O[C@H](CO)[C@@H](O)[C@H](O)[C@H]1O [Example 84, (2S,3R,4R,5S,6R)-2-(2-(Allyloxy)-4-chloro-5-((5-(furan-3-yl)thiazol-2-yl)methyl)phenyl)-6-(hydroxymethyl)tetrahydro-2H-pyran-3,4,5-triol] | 1.54 nM |
| OC[C@H]1O[C@@H](c2ccc(Cl)c(C3(c4ncc(-c5ccco5)s4)CC3)c2)[C@H](O)[C@@H](O)[C@@H]1O [Example 3, (2S,3R,4R,5S,6R)-2-(4-Chloro-3-(1-(5-(furan-2-yl)thiazol-2-yl)cyclopropyl)phenyl)-6-(hydroxymethyl)-tetrahydro-2H-pyran-3,4,5-triol] | 47.1 nM |
| OC[C@H]1O[C@@H](c2ccc(Cl)c(Cc3ncc(-c4ccccn4)s3)c2)[C@H](O)[C@@H](O)[C@@H]1O [Example 10, (2S,3R,4R,5S,6R)-2-(4-Chloro-3-((5-(pyridin-2-yl)thiazol-2-yl)methyl)phenyl)-6-(hydroxymethyl)-tetrahydro-2H-pyran-3,4,5-triol] | 6.86 nM |
| OC[C@H]1O[C@@H](c2ccc(F)c(Cc3ncc(-c4ccco4)s3)c2)[C@H](O)[C@@H](O)[C@@H]1O [Example 40, (2S,3R,4R,5S,6R)-2-(4-Fluoro-3-((5-(furan-2-yl)thiazol-2-yl)methyl)phenyl)-6-(hydroxymethyl)tetrahydro-2H-pyran-3,4,5-triol] | 6.11 nM |

Further lines, results first:

| IC50 | Compound |
| --- | --- |
| 100 nM | OC[C@H]1O[C@@H](c2cc(Cc3ncc(-c4ccco4)s3)c3ccccc3c2)[C@H](O)[C@@H](O)[C@@H]1O [Example 104, (2S,3R,4R,5S,6R)-2-(4-((5-(Furan-2-yl)thiazol-2-yl)methyl)naphthalen-2-yl)-6-(hydroxymethyl)-tetrahydro-2H-pyran-3,4,5-triol] |
| 8.75 nM | OC[C@H]1O[C@@H](n2cc(Cc3ncc(-c4ccco4)s3)c3ccccc32)[C@H](O)[C@@H](O)[C@@H]1O [Example 130, (2R,3R,4S,5S,6R)-2-(3-((5-(Furan-2-yl)thiazol-2-yl)methyl)-1H-indol-1-yl)-6-(hydroxymethyl)-tetrahydro-2H-pyran-3,4,5-triol] |
| 4.35 nM | OC[C@H]1O[C@@H](c2ccc(Cl)c(Cc3cnc(-c4cnccn4)s3)c2)[C@H](O)[C@@H](O)[C@@H]1O [Example 195] |
| 7.39 nM | CCOC(=O)OC[C@H]1O[C@@H](c2ccc(Cl)c(Cc3ncc(-c4ccsc4)s3)c2)[C@H](O)[C@@H](O)[C@@H]1O [Example 165, ((2R,3S,4R,5R,6S)-6-(4-Chloro-3-((5-(thiophen-3-yl)thiazol-2-yl)methyl)phenyl)-3,4,5-trihydroxytetrahydro-2H-pyran-2-yl)methyl ethyl carbonate] |
| 1.39 nM | OC[C@H]1O[C@@H](c2cc(Cc3cnc(-c4ccsc4)s3)c(Cl)cc2F)[C@H](O)[C@@H](O)[C@@H]1O [Example 203, (2S,3R,4R,5S,6R)-2-(4-Chloro-2-fluoro-5-((2-(thiophen-3-yl)thiazol-5-yl)methyl)phenyl)-6-(hydroxymethyl)tetrahydro-2H-pyran-3,4,5-triol] |
| 5.08 nM | CCCCOC(=O)OC[C@H]1O[C@@H](c2ccc(Cl)c(Cc3ncc(-c4ccco4)s3)c2)[C@H](O)[C@@H](O)[C@@H]1O [Example 161, Butyl ((2R,3S,4R,5R,6S)-6-(4-chloro-3-((5-(furan-2-yl)thiazol-2-yl)methyl)phenyl)-3,4,5-trihydroxytetrahydro-2H-pyran-2-yl)methyl carbonate] |
| 68.7 nM | CCOC[C@H]1O[C@@H](c2ccc(Cl)c(Cc3ncc(-c4ccco4)s3)c2)[C@H](O)[C@@H](O)[C@@H]1O [Example 140, (2S,3R,4R,5S,6R)-2-(4-Chloro-3-((5-(furan-2-yl)thiazol-2-yl)methyl)phenyl)-6-(ethoxymethyl)tetrahydro-2H-pyran-3,4,5-triol] |
| 30.9 nM | OCCOC[C@H]1O[C@@H](c2ccc(Cl)c(Cc3ncc(-c4ccco4)s3)c2)[C@H](O)[C@@H](O)[C@@H]1O [Example 141, (2S,3R,4R,5S,6R)-2-(4-Chloro-3-((5-(furan-2-yl)thiazol-2-yl)methyl)phenyl)-6-((2-hydroxyethoxy)methyl)tetrahydro-2H-pyran-3,4,5-triol] |
| 51.8 nM | CCOc1cnc(Cc2cc([C@@H]3O[C@H](CO)[C@@H](O)[C@H](O)[C@H]3O)c3ccccc3c2OC)s1 [Example 103, (2S,3R,4R,5S,6R)-2-(3-((5-Ethoxythiazol-2-yl)methyl)-4-methoxynaphthalen-1-yl)-6-(hydroxymethyl)-tetrahydro-2H-pyran-3,4,5-triol] |
| 76.6 nM | OC[C@H]1O[C@@H](c2ccc(Cl)c(Cc3cnc(-c4cc5ccccc5o4)s3)c2)[C@H](O)[C@@H](O)[C@@H]1O [Example 185, (2S,3R,4R,5S,6R)-2-(3-((2-(Benzofuran-2-yl)thiazol-5-yl)methyl)-4-chlorophenyl)-6-(hydroxymethyl)tetrahydro-2H-pyran-3,4,5-triol] |
| 50.3 nM | COc1c(Cc2ncc(C3CCCCC3)s2)cc([C@@H]2O[C@H](CO)[C@@H](O)[C@H](O)[C@H]2O)c2ccccc12 [Example 102, (2S,3R,4R,5S,6R)-2-(3-((5-Cyclohexylthiazol-2-yl)methyl)-4-methoxynaphthalen-1-yl)-6-(hydroxymethyl)-tetrahydro-2H-pyran-3,4,5-triol] |
